Biological target: Type-1 angiotensin II receptor (Rattus norvegicus)
Experiment: […] inhibitory concentration against Angiotensin II receptor, type 1 of rat adrenal membrane

IC50: 4 nM
SMILES: CCCCOC(=O)NS(=O)(=O)c1ccccc1-c1ccc(Cn2c(CCCC)nc3ccc(NC(=O)N(C)C(C)C)cc3c2=O)cc1 [2-Butyl-3-(2'-(butyloxycarbonylaminosulphonyl)-biphenyl-4-ylmethyl)-6-(N-isopropyl-N-methyl-aminocarbonylamino)-3H-quinazolin-4-one]

— BindingDB's records for doi:10.1016/0960-894X(94)85036-4 (1994)
